Results taken from US20260200976A1, “PEPTIDE HAVING ACTIVITY OF IMPROVING STATE OF SKIN, AND USE THEREOF” (CAREGEN CO., LTD., priority 2022, published 2026).

Tests used:
[1] = tested on: NIH3T3 cells; test: Reduction of reactive oxygen species increased by ultraviolet rays, DCF-DA flow cytometry, NIH3T3; type: cell-based, mouse; details: 50 μM or 1000 μM peptide, 6 J/cm2 ultraviolet rays, 24 hours, FL1 fluorescence, FIG. 8
Procedure: (§1) In this example, the aim was to confirm the effect of the peptide according to an embodiment on the antioxidant effect in damaged skin, by evaluating the change in the level of reactive oxygen species in skin cells increased by ultraviolet irradiation.
(§2) Specifically, NIH3T3 cells or HaCaT cells were seeded in a 6-well plate at a density of 5×10^5 cells/well and cultured for 24 hours. Next, the cells were washed once with serum-free DMEM media, and 50 μM or 1000 μM of a peptide consisting of an amino acid sequence of SEQ ID NO: 1 was dispensed into 1 mL of the serum-free media, and cultured in a CO2 incubator at 37° C. for […]. Next, the above culture was transferred to an e-tube, mixed with 1 ml of PBS, and dispensed into a well plate. Next, using a UV irradiator (VILBER LOURMAT, Cat No.: 3102-BSU, France), 6 J/cm2 ultraviolet rays were irradiated to NIH3T3 cells, and 15 J/cm2 ultraviolet rays were irradiated to HaCaT cells. Next, the PBS in the well plate was removed, 900 μL of the culture medium in which the peptides were dispensed was added, and the plate was cultured in a CO2 incubator at 37° C. for 24 hours. […] After washing the centrifuged cells with PBS, FL1 fluorescence values were measured through flow cytometry (FACS, BD, USA). […]

[2] = tested on: HaCaT cells; test: Reduction of reactive oxygen species increased by ultraviolet rays, DCF-DA flow cytometry, HaCaT; type: cell-based; details: 50 μM or 1000 μM peptide, 15 J/cm2 ultraviolet rays, 24 hours, FL1 fluorescence, FIG. 9
Procedure: as §1, §2

[3] = tested on: elastin; test: Expression of extracellular matrix component elastin, RT-PCR in NIH3T3 cells; type: cell-based, mouse; details: 10 μM or 50 μM peptide, 24 hours, FIG. 2 and FIG. 3
Procedure: (§3) In this example, the aim was to confirm the effect of the peptide according to an example on improving endogenous skin aging, including improvement of wrinkles and enhancement of elasticity, etc., by evaluating the expression levels of collagen type 1 (Col1a1), fibronectin, and elastin, which are known components of the dermis.
(§4) Specifically, NIH3T3 cells were seeded in a 6-well plate at a density of 3×10^5 cells/well and cultured for 24 hours. Next, the cells were washed once with serum-free DMEM media, and 10 μM or 50 μM of a peptide consisting of an amino acid sequence of SEQ ID NO: 1 was dispensed into 1 mL of the serum-free media, and cultured in a CO2 incubator at 37° C. for 24 hours. Next, the culture was washed twice with PBS, and RNA was isolated from the culture using easy blue (iNtRON, Cat. No.: 17061, Korea). Next, using an RT kit (Enzynomics, Cat. NO.: RT200, Korea), the isolated RNA was reverse transcribed to synthesize the respective cDNA. Next, using the synthesized 1 μg cDNA, primers for Col1a1, fibronectin, or elastin, and a PCR kit (Enzynomics, Cat. No.: P581T, Korea), polymerase chain reaction (PCR) was performed. Meanwhile, in this example, an untreated group was used as a control group, and a group to which TGF-β1 was added was used as a positive control group, the nucleotide sequences of the primers used in this example are shown in Table 2 below.

[4] = tested on: collagen type 1 (Col1a1); test: Expression of extracellular matrix component Col1a1, RT-PCR in NIH3T3 cells; type: cell-based, mouse; details: 10 μM or 50 μM peptide, 24 hours, FIG. 2 and FIG. 3
Procedure: as §3, §4

[5] = tested on: HaCaT cells; test: Inhibition of apoptosis induced by ultraviolet rays, MTT survival rate, HaCaT; type: cell-based; details: 50 μM or 100 μM peptide, 15 m J/cm2 ultraviolet rays, FIG. 7
Procedure: (§5) In this example, the aim was to confirm the effect of the peptide according to an example on the inhibition of apoptosis or cell recovery of skin cells induced by ultraviolet rays, by evaluating the change in survival rate of skin cells whose apoptosis was induced by ultraviolet irradiation.
(§6) Specifically, NIH3T3 cells or HaCaT cells were seeded in a 96-well plate at a density of 1×10^4 cells/well and cultured for 24 hours. Next, the cells were washed once with serum-free DMEM media, and 50 μM or 100 μM of the peptide consisting of an amino acid sequence of SEQ ID NO: 1 was dispensed into 200 μL of the medium. The culture medium dispensed with the peptide was cultured in a CO2 incubator at 37° C. for 1 hour, transferred to an e-tube, mixed with 100 ul of PBS, and dispensed into a well plate. Next, using a UV irradiator (VILBER LOURMAT, Cat No.: 3102-BSU, France), 6 J/cm2 ultraviolet rays were irradiated to NIH3T3 cells, and […] ultraviolet rays were irradiated to HaCaT cells. Next, PBS in the well plate was removed, MTT (Sigma, Cat. No.: M2003, USA) solution was dispensed into each well at 0.5 mg/ml, and cultured in a CO2 incubator at 37° C. for […]. Next, the absorbance of the culture was measured at 540 nm using a microplate reader (Molecular Devices, USA). […]

[6] = tested on: NIH3T3 cells; test: Inhibition of apoptosis induced by ultraviolet rays, MTT survival rate, NIH3T3; type: cell-based, mouse; details: 50 μM or 100 μM peptide, 6 J/cm2 ultraviolet rays, FIG. 6
Procedure: as §5, §6

[7] = tested on: NIH3T3 cells; test: Proliferation of skin cells, MTT survival rate; type: cell-based, mouse; details: 50 μM or 100 μM peptide, 72 hours, FIG. 1
Procedure: In this example, the aim was to confirm the effect of a peptide according to an example on proliferation of skin cells, by evaluating changes in survival rate of NIH3T3 cells, which are mouse fibroblasts.
Specifically, NIH3T3 cells were seeded in a […] at a density of 1×10^4 cells/well and cultured for 24 hours. Next, the cells were washed once with serum-free DMEM media, and 50 μM or 100 μM of a peptide consisting of an amino acid sequence of SEQ ID NO: 1 was dispensed into 200 μL of the serum-free media, and cultured in a CO2 incubator at 37° C. for 72 hours. Next, the culture was washed twice with PBS, and MTT solution was dispensed into each well at a concentration of 0.5 mg/ml. Next, it was shaded from light and cultured in a CO2 incubator at 37° C. for 4 hours, and the absorbance at 540 nm was measured using a microplate reader (Molecular Devices, USA).

[8] = tested on: sirtuin-1 (SIRT-1); test: Expression of skin barrier factor SIRT-1, RT-PCR in HaCaT cells; type: cell-based; details: 50 μM or 1000 μM peptide, 24 hours, FIG. 4 and FIG. 5
Procedure: (§7) In this example, the aim was to confirm the effect of the peptides according to an example on strengthening the skin barrier, by evaluating the expression levels of sirtuin-1 (SIRT-1) or aquaporin-3 (AQP3).
(§8) Specifically, HaCaT cells were seeded in a 6-well plate at a density of 3×10^5 cells/well and cultured for 24 hours. Next, the cells were washed once with serum-free DMEM media, and 50 μM or 1000 μM of a peptide consisting of an amino acid sequence of SEQ ID NO: 1 was dispensed into 1 mL of the serum-free media, and cultured in a CO2 incubator at 37° C. for 24 hours. Next, the culture was washed twice with PBS, and RNA was isolated from the culture using easy blue (iNtRON, Cat. No.: 17061, Korea). Next, using an RT kit (Enzynomics, Cat. NO.: RT200, Korea), the isolated RNA was reverse transcribed to synthesize the respective cDNA. Next, using the synthesized 1 μg cDNA, primers for SIRT-1 or AQP3, and a PCR kit (Enzynomics, Cat. No.: P581T, Korea), polymerase chain reaction (PCR) was performed. Meanwhile, in this example, an untreated group was used as a control group, and a group to which EGF was added was used as a positive control group, the nucleotide sequences of the primers used in this example are shown in Table 3 below.

[9] = tested on: aquaporin-3 (AQP3); test: Expression of skin barrier factor AQP3, RT-PCR in HaCaT cells; type: cell-based; details: 50 μM or 1000 μM peptide, 24 hours, FIG. 4 and FIG. 5
Procedure: as §7, §8

[10] = tested on: fibronectin; test: Expression of extracellular matrix component fibronectin, RT-PCR in NIH3T3 cells; type: cell-based, mouse; details: 10 μM or 50 μM peptide, 24 hours, FIG. 2 and FIG. 3
Procedure: as §3, §4

EVVDI [SEQ ID NO: 1]
level of reactive oxygen species in fibroblasts increased by ultraviolet irradiation [1]: reduced
level of reactive oxygen species in keratinocytes increased by ultraviolet irradiation [2]: reduced
expression of elastin [3]: increased
expression of Col1a1 [4]: increased
cell survival rate of keratinocytes reduced by ultraviolet irradiation [5]: restored
cell survival rate of fibroblasts reduced by ultraviolet irradiation [6]: restored
proliferation of fibroblasts (cell survival rate) [7]: promoted
expression of SIRT-1 [8]: increased
expression of AQP3 [9]: increased
expression of fibronectin [10]: increased
